Measurements from patent US12497408B2, “Tetracyclic compounds and methods for the treatment of Zika virus infection” (priority 2021, dated 2025).

System: ZIKV
Assay: ZIKV reporter virus-based antiviral screening on Huh7 cells
Type: cell-based, Zika virus
Conditions: Zika virus, Huh-7, 48 h, Huh7 cells infected with recombinant luciferase reporter ZIKV (MOI about 0.1), luciferase signal
Description: Protocol for ZIKV reporter virus-based antiviral screening on Huh7 cells:
• Human hepatocyte-derived carcinoma cell line (Huh7) 2. Reagents • ViviRen™ Live Cell Substrate (Promega, Cat #E6492) or Nano Glo assay system (Promega: N1130) • White opaque 96-well TC-treated microplates (Corning, Cat #3916) • 96-well Clear V-Bottom TC-treated Microplate (Corning, Cat #3894) • Complete cell culture media: DMEM (Gibco, Cat #10569) supplemented with 10% FBS (HyClone, Cat #SH30071.03IH25-40)+1% MEM Non-Essential Amino Acids Solution 100×(Gibco, Cat #11140050)+1% Penicillin-Streptomycin (10,000 U/mL) (Gibco, Cat #15140122). • Assay media: DMEM media (Gibco, Cat #31053028) supplemented with 2% FBS, 2% GlutaMAX™ Supplement (Gibco Cat #35050061), 1% Sodium Pyruvate solution (Gibco, Cat #11360070), 1% MEM Non-Essential Amino Acids Solution 100× and 1% Penicillin-Streptomycin (10,000 U/mL). • Trypsin-EDTA solution (Gibco, Cat #25200056) 3. Virus • Recombinant ZIKV strain with Renilla luciferase gene (strain FSS-Rlu) or Nano luciferase gene (Strain PRV-Nano, Dakar-Nano) 4. Instruments • BioTek Cytation 5 or other plate-readers for chemiluminescence detection model. • Eppendorf plate centrifuge • Plate shaker • Eppendorf multichannel pipettes Procedures Day 1: Preparation of Cells • Human hepatocyte-derived carcinoma cell line (Huh7) cells were detached from a T-175 flask by using a Trypsin-EDTA solution. The detached cells were suspended in complete culture media in a sterile 50-ml conical tube. • The 50-ml conical tube was centrifuged at 1200×rpm for 3 min at room temperature. • The cells were resuspended in assay media. The cell numbers were counted, and the cells diluted to a density of 3×10^5 cells/ml. • The cells were plated at 50 μl cells per well in White opaque 96-well plates (assay plates). Gently shake the plates to ensure cells to attach to the plate evenly. • The plated cells were incubated in a humidified incubator (37° C. with 5% CO2). Day 2: Infection • 1) Nine serial (2-fold or 3-fold) concentrated compounds were prepared using 90% DMSO solution and DMSO controls in a clear V-bottom 96-well plate (compound plate). • For example:
• 2) The reporter virus stock was diluted to a concentration of 3×10^4 FFU (FFU: focus-forming unit)/ml using the assay media. 200 μl diluted virus per well was aliquoted into a clear V-bottom 96-well plate (mixing plate). • 3) 1 μl above 400×concentrated compound dilutions was added from the compound plate to each well of the mixing plate. The plates were shaken on a plate shaker for 5 min. • 4) 50 μl compound-virus mixture was added into each well of the assay plates (the MOI is about 0.1). The plates were shaken gently by mixing the virus evenly. • An example of the format for assay plate:
• control. • 5) The plates were centrifuged at 1000 rpm for 15 s. • 6) The plates were incubated at 37° C. with 5% CO2 in a humidified incubator for 48 hrs. Day 4: Read Luciferase Signals • 7) The ViviRen™ Live Cell Substrate was diluted in assay media for 3000× folds. 25 μl of diluted substrates was added into each well of the assay plates. • For Nano-Glo assay system, 50 μl diluted substrates (50×fold diluted from the stock in assay buffer) were added. • 8) The plates were incubated at room temperature for 5 min. • 9) Optimally, cell viability is measured using the Promega Cell-titer Glo kit (only used when ZIKV-Rlu was used for infection). • 10) Luciferase signals were read using the Cytation 5 with gain value of 120-150. Data Analysis • a. The luciferase signals from DMSO-treated groups (un-treated controls) were set as 100%. The relative luciferase signals were obtained by normalizing the luciferase signals from each dilution-treated group to that of the controls. • b.

Point of comparison: `COC(=O)N[C@H](C(=O)N1[C@@H](C)CC[C@H]1c1nc(Cl)c(-c2cc3c4c(c2)OCc2cc(-c5[nH]c([C@@H]6CC[C@H](C)N6C(=O)[C@@H](NC(=O)OC)C(C)C)nc5C(C)C)cc(c2-4)OC3)[nH]1)C(C)C` [Compound 43, methyl ((S)-1-((2S,5S)-2-(5-(7-(4-chloro-2-((2S,5S)-1-((methoxycarbonyl)-L-valyl)-5-methylpyrrolidin-2-yl)-1H-imidazol-5-yl)-5,10-dihydrochromeno[5,4,3-cde]chromen-2-yl)-4-isopropyl-1H-imidazol-2-yl)-5-methylpyrrolidin-1-yl)-3-methyl-1-oxobutan-2-yl)carbamate], EC50 1.6 nM. Against it:
- COC(=O)N[C@H](C(=O)N1[C@@H](C)CC[C@H]1c1nc(Cl)c(-c2cc3c4c(c2)OCc2cc(-c5[nH]c([C@@H]6CC[C@H](C)N6C(=O)[C@@H](NC(=O)OC)C(C)(C)C)nc5Cl)cc(c2-4)OC3)[nH]1)C(C)(C)C [Compound 31, dimethyl ((2S,2′S)-((2S,2′S,5S,5′S)-((5,10-dihydrochromeno[5,4,3-cde]chromene-2,7-diyl)bis(4-chloro-1H-imidazole-5,2-diyl))bis(2-methylpyrrolidine-5,1-diyl))bis(3,3-dimethyl-1-oxobutane-1,2-diyl))dicarbamate] — within 1.5-fold, 1.1 nM
- COC(=O)N[C@H](C(=O)N1C[C@H](F)C[C@H]1c1nc(Cl)c(-c2cc3c4c(c2)OCc2cc(-c5[nH]c([C@@H]6C[C@@H](F)CN6C(=O)[C@@H](NC(=O)OC)C(C)(C)C(F)(F)F)nc5Cl)cc(c2-4)OC3)[nH]1)C(C)(C)C(F)(F)F [Compound 55, dimethyl ((2S,2′S)-((3R,3′R,5S,5′S)-((5,10-dihydrochromeno[5,4,3-cde]chromene-2,7-diyl)bis(4-chloro-1H-imidazole-5,2-diyl))bis(3-fluoropyrrolidine-5,1-diyl))bis(4,4,4-trifluoro-3,3-dimethyl-1-oxobutane-1,2-diyl))dicarbamate] — 2.9-fold higher, 4.7 nM
- COC(=O)N[C@H](C(=O)N1[C@@H](C)CC[C@H]1c1nc(Cl)c(-c2cc3c4c(c2)OCc2cc(-c5[nH]c([C@@H]6CC[C@H](C)N6C(=O)[C@@H](NC(=O)OC)C(C)C)nc5Cl)cc(c2-4)OC3)[nH]1)C(C)C [Compound 74, dimethyl ((2S,2′S)-((2S,2′S, 5S,5′S)-((5,10-dihydrochromeno[5,4,3-cde]chromene-2,7-diyl)bis(4-chloro-1H-imidazole-5,2-diyl))bis(2-methylpyrrolidine-5,1-diyl))bis(3-methyl-1-oxobutane-1,2-diyl))dicarbamate] — within 1.5-fold, 2 nM
- CC[C@H](C)[C@H](NC(=O)OC)C(=O)N1CC(F)(F)C[C@H]1c1nc(Cl)c(-c2cc3c4c(c2)OCc2cc(-c5[nH]c([C@@H]6CC(F)(F)CN6C(=O)[C@@H](NC(=O)OC)[C@@H](C)CC)nc5Cl)cc(c2-4)OC3)[nH]1 [Compound 57, dimethyl ((2S,2′S,3S,3′S)-((5S,5′S)-((5,10-dihydrochromeno[5,4,3-cde]chromene-2,7-diyl)bis(4-chloro-1H-imidazole-5,2-diyl))bis(3,3-difluoropyrrolidine-5,1-diyl))bis(3-methyl-1-oxopentane-1,2-diyl))dicarbamate] — 2.9-fold higher, 4.6 nM
- CC[C@H](C)[C@H](NC(=O)OC)C(=O)N1[C@@H](C)CC[C@H]1c1nc(Cl)c(-c2cc3c4c(c2)OCc2cc(-c5[nH]c([C@@H]6CC[C@H](C)N6C(=O)[C@@H](NC(=O)OC)[C@@H](C)CC)nc5Cl)cc(c2-4)OC3)[nH]1 [Compound 28, dimethyl ((2S,2′S,3S,3′S)-((2S,2′S,5S,5′S)-((5,10-dihydrochromeno[5,4,3-cde]chromene-2,7-diyl)bis(4-chloro-1H-imidazole-5,2-diyl))bis(2-methylpyrrolidine-5,1-diyl))bis(3-methyl-1-oxopentane-1,2-diyl))dicarbamate] — the same, 1.6 nM
- COC(=O)N[C@H](C(=O)N1CC2(CC2)C[C@H]1c1nc(Cl)c(-c2cc3c4c(c2)OCc2cc(-c5[nH]c([C@@H]6CC7(CC7)CN6C(=O)[C@@H](NC(=O)OC)C(C)(C)C(F)(F)F)nc5C(C)C)cc(c2-4)OC3)[nH]1)C(C)(C)C(F)(F)F [Compound 85, methyl ((S)-1-((S)-6-(5-(7-(4-chloro-2-((S)-5-((S)-4,4,4-trifluoro-2-((methoxycarbonyl)amino)-3,3-dimethylbutanoyl)-5-azaspiro[2.4]heptan-6-yl)-1H-imidazol-5-yl)-5,10-dihydrochromeno[5,4,3-cde]chromen-2-yl)-4-isopropyl-1H-imidazol-2-yl)-5-azaspiro[2.4]heptan-5-yl)-4,4,4-trifluoro-3,3-dimethyl-1-oxobutan-2-yl)carbamate] — within 1.5-fold, 1.4 nM
- CC[C@H](C)[C@H](NC(=O)OC)C(=O)N1CCCC[C@H]1c1nc(Cl)c(-c2cc3c4c(c2)OCc2cc(-c5[nH]c([C@@H]6CCCCN6C(=O)[C@@H](NC(=O)OC)[C@@H](C)CC)nc5Cl)cc(c2-4)OC3)[nH]1 [Compound 14, dimethyl ((2S,2′S,3S,3′S)-((2S,2′S)-((5,10-dihydrochromeno[5,4,3-cde]chromene-2,7-diyl)bis(4-chloro-1H-imidazole-5,2-diyl))bis(piperidine-2,1-diyl))bis(3-methyl-1-oxopentane-1,2-diyl))dicarbamate] — 2.9-fold higher, 4.6 nM
- CC[C@H](C)[C@H](NC(=O)OC)C(=O)N1CC2(CC2)C[C@@H]1c1nc(Cl)c(-c2cc3c4c(c2)OCc2cc(-c5[nH]c([C@H]6CC7(CC7)CN6C(=O)[C@@H](NC(=O)OC)[C@@H](C)CC)nc5C(C)C)cc(c2-4)OC3)[nH]1 [Compound 78, methyl ((2S,3S)-1-((R)-6-(5-(7-(4-chloro-2-((R)-5-((methoxycarbonyl)-L-isoleucyl)-5-azaspiro[2.4]heptan-6-yl)-1H-imidazol-5-yl)-5,10-dihydrochromeno[5,4,3-cde]chromen-2-yl)-4-isopropyl-1H-imidazol-2-yl)-5-azaspiro[2.4]heptan-5-yl)-3-methyl-1-oxopentan-2-yl)carbamate] — higher, > 1000 nM
- COC(=O)N[C@H](C(=O)N1C[C@@H](F)C[C@H]1c1nc(Cl)c(-c2cc3c4c(c2)OCc2cc(-c5[nH]c([C@@H]6C[C@H](F)CN6C(=O)[C@@H](NC(=O)OC)C(C)C)nc5Cl)cc(c2-4)OC3)[nH]1)C(C)C [Compound 50, dimethyl ((2S,2′S)-((3S,3′S,5S,5′S)-((5,10-dihydrochromeno[5,4,3-cde]chromene-2,7-diyl)bis(4-chloro-1H-imidazole-5,2-diyl))bis(3-fluoropyrrolidine-5,1-diyl))bis(3-methyl-1-oxobutane-1,2-diyl))dicarbamate] — 150-fold higher, 240 nM
- CC[C@H](C)[C@H](NC(=O)OC)C(=O)N1CCC[C@@]1(C)c1nc(Cl)c(-c2cc3c4c(c2)OCc2cc(-c5[nH]c([C@]6(C)CCCN6C(=O)[C@@H](NC(=O)OC)[C@@H](C)CC)nc5Cl)cc(c2-4)OC3)[nH]1 [Compound 66, dimethyl ((2S,2′S,3S,3′S)-((2S,2′S)-((5,10-dihydrochromeno[5,4,3-cde]chromene-2,7-diyl)bis(4-chloro-1H-imidazole-5,2-diyl))bis(2-methylpyrrolidine-2,1-diyl))bis(3-methyl-1-oxopentane-1,2-diyl))dicarbamate] — 28-fold higher, 44 nM
